Measurements from patent publication US10197563B2, “3-D in vitro model for breast cancer dormancy” (New Jersey Institute of Technology, priority 2015, dated 2019).

Columns and labels:
[1] = test system: MDA-MB-231 cells; conditions: treated cells
[2] = test system: MDA-MB-231 and T47D cells; assay: Western blots of breast cancer cell lines with increasing carboplatin dosage; type: cell-based; conditions: with increased carboplatin concentration
Protocol: Western blot was performed to detect the following proteins: Bax, Bcl-2, Oct-4 and Sox-2 for BCCs on scaffolds. Briefly, whole cell extracts were prepared with the NP-40 buffer and nuclear/cytoplasmic extracts with NE-PER Nuclear and Cytoplasmic Extraction kit. BCC extracts (20 μg) were subjected to electrophoresis on 4-20% SDS-PAGE (Bio-Rad; Hercules, Calif.). Proteins were transferred to PVDF membranes, and membranes were incubated overnight in the respective primary antibodies. This was followed by 2 h incubation with HRP-conjugated secondary antibodies at 1:2000 final dilutions. The latter was detected with chemiluminescence. Membranes were stripped with Restore Western Blot Stripping Buffer and then re-probed for other proteins, including β-actin mAb (1:4000 dilution). All bands were normalized to β-actin.

[3] = test system: T47D cells; assay: Flow cytometry of CD44/CD24 expression of carboplatin treated cells; type: cell-based
[4] = test system: T47D cells; assay: Carboplatin cytotoxicity, trypan blue test; type: cell-based
Protocol: (§1) For determination of cell viability, treated as well as non-treated cells were used. MDA-MB-231 and T47D cells were seeded in T-175 tissue culture flasks. At 80% confluency, the growth media was replaced with fresh media containing different concentrations of carboplatin for 48 and 72 h. All experiments were repeated twice. After treatment, the culture media was collected in a 50 ml centrifugation tube, since it might contain dead cells necessary for cell counts. The cell monolayer was washed with PBS and then collected in the same tube. Cells were treated with Trypsin and, Trypsin with the cells was collected in the same 50 ml tube. The suspension was centrifuged (5 min, 1200 rpm) and the supernatant removed. The pellet was washed with PBS, centrifuged (5 min, 1200 rpm) and re-suspended again in complete culture media. Then, a small aliquot of the cell suspension (25 μl) was mixed with the same volume of 0.4% trypan blue (Sigma) solution and the sample was counted after 2 min of staining using a haemocytometer. The number of bright (viable) cells and blue cells (non-viable) were evaluated using a light microscope with a 20-fold magnification. After counting, the cell viability (CV) was expressed as the percentage of surviving cells compared to the total number of cells: CV=(viable cells/total number of cells)×100.
(§2) The concentrations of drugs that were finally toxic to at least 50% of the cell population (IC50/cytotoxicity) were determined. Then, studies were performed looking at viability over the full range of carboplatin concentrations and compared to non-treated BCCs. At day 3-post treatment, viable resistant BCCs were selected and counted using standard protocols for downstream experiments on scaffolds.

[5] = test system: MDA-MB-231 cells; assay: Carboplatin cytotoxicity, trypan blue test; type: cell-based
Protocol: as §1, §2

[6] = test system: MDA-MB-231 cells; assay: Carboplatin survival curve for chemotherapy treated and non-treated cells; type: cell-based; conditions: for percent viability: 220 μg/ml carboplatin
Protocol: as §1, §2

[7] = test system: MDA-MB-231 cells; assay: Morphology of cells post addition of carboplatin; type: cell-based
Excerpt: For these studies carboplatin sensitivity of MDA-MB-231 cells was investigated as previously mentioned. Different subpopulations were obtained for subsequent studies on scaffolds. Under normal condition, BCCs population in culture can be seen to be composed of a heterogeneous population of giant multi-nucleated cells mixed with small single-nucleated cells (FIGS. 38a and b.). […] Therefore, cells at 3-4 days post treatment were selected as being carboplatin resistant MDA-MB-231 cells.

[8] = 2 days post treatment, maximum carboplatin concentration of 50 μg/ml
[9] = 3 days post treatment, 50 μg/ml carboplatin

## N.N.O=C([O-])C1(C(=O)[O-])CCC1.[Pt+2] [carboplatin]
[1]
  CD44^+/CD24^+ cells: 81.4%
  CD44^+/CD24^− cells: 18%
  CD44^−/CD24^+ cells: 0.09%
  CD44^−/CD24^− cells: 0.51%
[2]
  Bcl-2 expression: increased
  Oct-4 expression: increased
  Sox2 expression: increased
[3]
  CD44^+/CD24^+ cells: 29%
  CD44^+/CD24^− cells: 0.01%
  CD44^−/CD24^− cells: 0.99%
  CD44^−/low/CD24^+ cells: 70%
[4]; [8]
  death: 28%
[4]; [9]
  death: 48%
[5]; [8]
  death: 17%
[5]; [9]
  death: 25%
[6]; 0 to 100 μg/ml carboplatin
  difference in percent viability between non-treated and treated cells: no significant difference
[6]; chemo-treated cells
  percent viability: 80%
[6]; non-treated cells
  percent viability: 20%
[6]; non-treated cells, 100 to 120 μg/ml carboplatin
  decrease in percent viability: 30%
[6]; non-treated cells, 140 to 170 μg/ml carboplatin
  decrease in percent viability: 40%
[6]; non-treated cells, 170 to 220 μg/ml carboplatin
  decrease in percent viability: 80%
[6]; treated (chemoresistant) cells, 100 to 120 μg/ml carboplatin
  decrease in percent viability: 10%
[6]; treated (chemoresistant) cells, 140 to 170 μg/ml carboplatin
  decrease in percent viability: 20%
[6]; treated (chemoresistant) cells, 170 to 220 μg/ml carboplatin
  decrease in percent viability: 20%
[7]; 7 days post carboplatin treatment
  cell morphology: fragmented and appeared to be dying
[7]; several hours post treatment with carboplatin
  giant multi-nucleated cells in culture: no longer present
